These results are taken from patent US20260102377A1, “COMPOSITIONS AND METHODS FOR TREATING MYASTHENIA GRAVIS” (priority 2022, published 2026).

Molecules are shown by their SMILES. “Also recorded” adds a separate entry of the source.

Assay [1] has as its system EAMG muscle fibres. The experiment in a line: Intracellular action potential measurement during nerve stimulation. The format is cell-based, rat. The settings on record: 20 μM NMD670; 30 Hz nerve stimulation; EAMG muscle fibres (n=110). The source says: To allow for measurements of electrophysiological properties at the cellular level and for measurements of force, it was necessary to isolate nerve-muscle preparations from the rats. To this end, animals were sacrificed, and muscles were dissected out with 1 to 3 cm of intact nerve. The nerve-muscle preparations were then transferred to the organ baths used for the particular experiments (see below) and perfused with Normal Krebs-Ringer (NKR) solution, consisting of (in mM); 122 NaCl, 25 NaHCO3, 2.8 KCl, 1.2 KH2PO4, 1.2 MgSO4 1.27 CaCl2 and 5 D-glucose. This NKR solution was continuously gassed with a mixture of 95% oxygen and 5% CO2, to maintain a pH of approx. 7.4. In some experiments methyl-sulphate was used to replace Cl^− in the solution. All chemicals used were of analytical grade.

The test system of assay [2] is EAMG rats. Briefly: 14-day dosing in EAMG animals: grip strength. Format: in vivo, rat. As for the experimental part:
To induce EAMG, 250 μL of emulsion of Complete Freund's Adjuvant, consisting of heat-inactivated Mycobacterium tuberculosis H37Ra in non-metabolizable oils, together with Phosphate-Buffered Saline (PBS) and 80 μg of the extracellular α-domain peptide fragment of the human nicotinic acetylcholine receptor (antigen) was injected subcutaneously in seven-week-old, anaesthetized Lewis rats. The disease-inducing antigen was supplied by the Hellenic Pasteur institute3. The emulsion was deposited at the tail base, left hindleg, and right foreleg. After injection, animals were allowed to recover and returned to their home cage maintained in ventilated racks under controlled temperature (20 to 22° C.) and humidity (˜55%) control, under a 12-h light/12-h dark cycle with food and water provided ad libitum. The animals had pathogen free status and the housing and changing system was designed to assure that the pathogen free status was preserved during the study. The EAMG rats were observed, weighed, and scored for MG symptoms weekly until symptoms of MG developed, whereafter animals were observed daily.
Sixteen (16) rats with an EAMG clinical score of 2 were allocated to the study and stratified to one of the two treatment groups (vehicle vs NMD670, 8 rats per group). Stratification was based on rotarod endurance and grip strength performance with the aim to obtain similar average starting points for the two groups. Grip strength and Rotarod performance were measured prior to treatment (day 0) and on days 1, 4, 7, 9, 11 and 14 during treatment. The treatment was administered by per oral gavage. Dosing was twice daily with 20 mg/kg NMD670 or vehicle (sterile water) for 14 days unless the rat was subjected to premature termination due to reaching humane endpoints. The dose solutions for the treatment groups were blinded. Thus, experimenters and subsequent analysis were blinded as to which group received CIC-1 inhibitor and which group received vehicle. Full analysis of data and statistics were concluded before unblinding the data. Plasma samples were obtained on days 0, 1 and 14, with muscle samples obtained on day 14 at termination.
Grip strength was measured on a BIOSEB BIO-GT3 Grip strength meter (force transducer, S/N 180271). The rat was handled to allow all four paws to grab the mesh on the grip meter and the rat was then pulled 5 times by the base of the tail in the opposite direction of its body orientation, i.e. towards the operator and away from the grip meter. Care was taken to ensure that the force recorded reflected the grip strength of the rat and not the force of the pulls conducted by the operator. There was minimal pause between the 5 repeated pulls with recordings being separated only by the time of handling the rat (few seconds). Measurements were considered invalid if the rat let go with one or more limbs before the pull was initiated. Average values of the 5 pulls per test occasion were used for further data processing.

Assay [3] relates to patients with myasthenia gravis. Briefly: Phase IIA clinical trial (Part C): hand grip strength (Jamar dynamometer). Format: in vivo, human. The procedure:
For each subject, the study consisted of three study periods during which subjects received either a single dose of NMD670 400 mg, NMD670 1200 mg, or placebo with a 7-day washout period between visits. On these study visits, subjects were asked to refrain from their regular dose of pyridostigmine (if applicable) from 14 h before dosing until after the last pharmacodynamic measurement on Day 1 (see Table 13: Visit and Assessment Schedule). The cross-over design allowed intra-individual comparison of drug effects versus placebo (see FIG. 16). A balanced design was applied to control for first-order carry-over effects.
Part C was a double-blinded, placebo-controlled, three-way cross-over comparison of two single oral doses of NMD670 in men and women with stable symptomatic myasthenia gravis. 12 patients were enrolled. For each subject, the study consisted of three study periods during which subjects received either a single dose of NMD670 or placebo. On these study visits, subjects were asked to refrain from their regular dose of pyridostigmine (if applicable) for 14 hours before dosing. Single doses were administered in randomized order (400 mg free acid, 1200 mg free acid, or placebo p.o.), with a 7-day washout period between visits (FIG. 16). NMD670/placebo was administered with 240 ml of still water.
Hand grip was evaluated with a Jamar hand grip dynamometer. An analysis of hand grip strength, an item of QMG score and therefore not an independent variable for the total score, was also performed (table 18).

Regarding `C[C@H](Oc1ccc(Br)cc1-c1ccon1)C(=O)O` [NMD670, (2S)-2-[4-bromo-2-(1,2-oxazol-3-yl)phenoxy]propanoic acid], the “Success of repeated action potential excitations” value in assay [1] is “improved markedly; also recorded: AP excitation failures were less common”. The “Grip strength over vehicle group throughout the period of treatment” value in assay [2] (14-day chronic dosing, 20 mg/kg twice daily) is given as “increased grip strength”. Besides, the “Grip strength relative to bodyweight” value is reported as 4.8 ± 0.17 in assay [2] (day 0 (prior to treatment), 20 mg/kg twice daily per oral, P > 0.9999 vs vehicle); 5.5 ± 0.46 in assay [2] (day 1, 20 mg/kg twice daily per oral, P = 0.1225 vs vehicle); 5.4 ± .038 in assay [2] (day 4, 20 mg/kg twice daily per oral, P = 0.0629 vs vehicle); 4.9 ± 0.26 in assay [2] (day 7, 20 mg/kg twice daily per oral, P = 0.7266 vs vehicle); 5.0 ± 0.27 in assay [2] (day 9, 20 mg/kg twice daily per oral, P = 0.2100 vs vehicle); 5.4 ± 0.41 in assay [2] (day 11, 20 mg/kg twice daily per oral, P = 0.0206 vs vehicle). Moreover, the “Grip strength relative to bodyweight” value in assay [2] (day 14, 20 mg/kg twice daily per oral, P = 0.1010 vs vehicle) was 5.1 ± 0.47. Further, the “Right-hand grip strength, CFB over placebo, Arithmetic mean” value came out at 2.4 kg in assay [3] (400 mg versus placebo, 3-hour); 0.4 kg in assay [3] (400 mg versus placebo, 5-hour); 2.9 kg in assay [3] (1200 mg versus placebo, 3-hour); 2.8 kg in assay [3] (1200 mg versus placebo, 5-hour). In addition, the “Right-hand grip strength, CFB over placebo, LSM” value in assay [3] (400 mg versus placebo, 3-hour, p = 0.05) turned out to be 2.4 kg; in assay [3] (400 mg versus placebo, 5-hour, p = 0.76), 0.4 kg; in assay [3] (400 mg versus placebo, Overall, p = 0.19), 1.4 kg; in assay [3] (1200 mg versus placebo, 3-hour, p = 0.02), 2.9 kg; in assay [3] (1200 mg versus placebo, 5-hour, p = 0.03), 2.8 kg; in assay [3] (1200 mg versus placebo, Overall, p = 0.01) it was 2.8 kg. The “Change from baseline over placebo in hand grip strength, left and right hand” value in assay [3] (both doses (400 mg, 1200 mg), statistically significant for the right hand) was “improved; also recorded: numerically positive”.
